Series [1] concerns Musca domestica. The series is described as follows: Insecticidal activity against Musca domestica (house fly) after 24 hr. In kind it is functional.
Series [2] has as its system Rhyzopertha dominica. The series is described as follows: Insecticidal activity against Rhyzopertha dominica after 24 hr. In kind it is functional.
Series [3] deals with Musca domestica. The series can be described thus: Drug level in Musca domestica (house fly) assessed as cyanide ion level per gram of insect at L99 treated topically after 24 hr by spectrophotometric method. In kind it is ADME, organism-based. The note with it: in vivo, topical_or_ocular.
For series [4], the system named is Musca domestica. The series is described as follows: Drug level in Musca domestica (house fly) assessed as cyanide ion level per gram of insect at L99 treated as fumigation after 24 hr by spectrophotometric method. The note with it: in vivo, inhaled_or_intranasal. In kind it is ADME, organism-based.
Series [5] deals with Musca domestica. The series is described as follows: Drug level in Musca domestica (house fly) at 1000 ug after 24 hr by spectrophotometric method. In kind it is ADME, organism-based. The settings on record: in vivo.
Series [6] has as its system Rhyzopertha dominica. The series is described as follows: Drug level in Rhyzopertha dominica assessed as cyanide ion level per gram of insect at L99 treated as fumigation after 24 hr by spectrophotometric method. In kind it is ADME, organism-based. The settings on record: in vivo, other.

Values after ≈ are worked out from the molar mass of the structure shown.

One may read the LC50 as the concentration lethal to half of the exposed cells or organisms. Higher therefore signals lower toxicity. With `CCC(Cl)Cl` [DICHLOROPROPANE], the LC50 came out at 0.9 µg/mL (≈ 7.97 µM) in the series on Musca domestica [1] and 5.47 µg/mL (≈ 48.4 µM) in the series with Rhyzopertha dominica [2].

Consider `C=CC(C#N)OC(C)=O` (centres undefined) [1-CYANOALLYL ACETATE], for which the LC50 is 0.26 µg/mL in the series with Musca domestica [1] and 0.37 µg/mL with Rhyzopertha dominica [2]. For the same molecule, the Drug uptake in the series with Musca domestica [3] stood at 54 ppm; with Musca domestica [4], 39 ppm; in the series on Musca domestica [5], 53%; with Rhyzopertha dominica [6], 33 ppm.

Take `COP(=O)(OC)OC=C(Cl)Cl` [DICHLORVOS]: the LC50 in the series with Musca domestica [1] turned out to be 0.011 µg/mL (≈ 0.0498 µM); with Rhyzopertha dominica [2], 0.29 µg/mL (≈ 1.31 µM).

Turning to `C=CC(O)C#N` (centres undefined), the LC50 was determined as 0.056 µg/mL (≈ 0.674 µM) in the series on Musca domestica [1] and 0.37 µg/mL (≈ 4.45 µM) with Rhyzopertha dominica [2]. Besides, the Drug uptake in the series on Musca domestica [3] was 52 ppm; in the series with Musca domestica [4], 38 ppm; in the series with Musca domestica [5] it was 53%; in the series on Rhyzopertha dominica [6] it was 35 ppm.

Consider `CCC(C)(O)C#N` (centres undefined) [METHYLETHYL KETONE CYANOHYDRIN], for which the LC50 in the series with Musca domestica [1] was found to be 0.09 µg/mL (≈ 0.908 µM); in the series with Rhyzopertha dominica [2], 0.41 µg/mL (≈ 4.14 µM).

As to `CC(C)(O)C#N` [DIMETHYLKETONE CYANOHYDRIN], the LC50 with Musca domestica [1] amounted to 0.07 µg/mL (≈ 0.823 µM); in the series on Rhyzopertha dominica [2] it was 0.4 µg/mL (≈ 4.7 µM). The Drug uptake in the series on Musca domestica [3] is on record as 56 ppm; with Musca domestica [4], 48 ppm; in the series with Musca domestica [5], 53%; with Rhyzopertha dominica [6], 43 ppm.

(Values after ChEMBL document CHEMBL3046737, “Mode of Action of Cyanohydrins in Insects” (J Pestic Sci, 2005).)
